Here are results for 1 substance from article PMC11963564 (Antimicrobial Agents and Chemotherapy, 2025).

The subject of one experiment is 3CL^pro mutant F140A. The class given is biochemical, SARS-CoV-2.
For experiment [1], the system named is SARS-CoV-2 Omicron variant B.1.1.529. To be noted: cited from earlier work.

Turning to simnotrelvir, in the experiment with 3CL^pro mutant F140A, the “IC50 fold change to WT” value is listed as 21.9 fold. The IC50 in experiment [1] was 43 nM.

By IC50 is commonly meant the concentration at which inhibition is half-maximal.
